The subject of this test is Plasmodium berghei. Description: Luciferase/luciferin-expressing antifolate-resistant parasites were used to infect a culture of HepG2 cells that were pre-incubated with compounds. Infected hepatocytes emit light due to the luciferase reaction. Assay results are presented as the percent inhibition of light emission compared to control. […]. Format: functional. Conditions: sporozoite; for IC90: read-out: LUCIFERASE INFECTION ASSAY - IC90.

[1] abbreviates: read-out: LUCIFERASE INFECTION ASSAY - IC50.

Drawing on ChEMBL document CHEMBL4483862, “Open-source discovery of chemical leads for next-generation chemoprotective antimalarials” (2018), this text covers IC50 and IC90 for 37 compounds.

As usually defined, the IC50 is the point on the concentration scale where inhibition reaches its midpoint. As usually defined, the IC90 is the concentration at which the effect reaches the 90% level.

Turning to `c1ccc(-c2csc3nc(CN4CCCCC4)nc(Sc4nnc(-c5cccnc5)o4)c23)cc1`, the IC90 amounted to 3.67 µM. In addition, the IC50 (HEPG2TOX_HILL_SLOPE 3.21, 5.75, HEPG2TOX_R_SQUARED 0.957, 0.718, PBLUC_HILL_SLOPE 33.6, 11.3, PBLUC_R_SQUARED 0.628, 0.512, read-out: LUCIFERASE INFECTION ASSAY - IC50) is 3.23 µM.
Turning to `C=C1SC(Nc2cc(C)cc(C)c2)=NC1(C)C`, the concentration for an effect of 90% (IC90) is greater than 13.4 µM. The IC50 (PBLUC_HILL_SLOPE 0.95, PBLUC_R_SQUARED 0.559, read-out: LUCIFERASE INFECTION ASSAY - IC50) was greater than 13.4 µM.
For the compound `Cc1cc(N(C)C(C)c2ccc(-n3cnc4ccccc43)cc2)n2ncnc2n1` (centres undefined), the IC90 is greater than 10 µM. The IC50 (HEPG2TOX_HILL_SLOPE 9.21, HEPG2TOX_R_SQUARED 0.124, PBLUC_HILL_SLOPE 9.5, PBLUC_R_SQUARED 0.615, read-out: LUCIFERASE INFECTION ASSAY - IC50) is 8.2 µM.
Turning to `CSc1[nH]nc(-c2cc(C(C)(C)C)oc2C)c1C#N`, the IC90 is greater than 12 µM. Also, the IC50 (PBLUC_HILL_SLOPE 2.91, PBLUC_R_SQUARED 0.01, read-out: LUCIFERASE INFECTION ASSAY - IC50) worked out at 8.62 µM.
As for `OC(CNCc1ccc(F)cc1)(c1ccccc1)c1ccc(F)cc1` (centres undefined), the IC90 was greater than 9.72 µM. In addition, for the setting “HEPG2TOX_HILL_SLOPE 7.21, HEPG2TOX_R_SQUARED 0.703, read-out: LUCIFERASE INFECTION ASSAY - IC50”, the IC50 is greater than 9.72 µM.
In the case of `C=CCn1c[n+](C2=C(NS(=O)(=O)c3ccc(C)cc3)C(=O)c3ccccc3C2=O)c2ccccc21`, the IC90 stood at 1.26 µM. For the same compound, for the setting “PBLUC_HILL_SLOPE 2.18, PBLUC_R_SQUARED 0.79, read-out: LUCIFERASE INFECTION ASSAY - IC50”, the IC50 amounted to 0.462 µM.
Take `CCOc1cc(N2CCOCC2)c(OCC)cc1NC(=O)COc1ccc(-c2nnco2)cc1`: the IC90 is greater than 10 µM. Besides, the IC50 under setting [1] is greater than 10 µM.
Regarding `Cc1ccc(-n2c(-c3ccc(F)cc3)nc3c2C(=O)c2ccccc2C3=O)cc1`, the IC90 was greater than 10 µM. For the setting “PBLUC_HILL_SLOPE 1.1, PBLUC_R_SQUARED 0.595, read-out: LUCIFERASE INFECTION ASSAY - IC50”, the IC50 turned out to be 1.88 µM.
For the compound `CC(C)c1nc(NCCCN2CCOCC2)c(C#N)c2c1CCCC2`, the IC90 is greater than 9.64 µM. Under setting [1], the IC50 is greater than 9.64 µM.
Consider `CCOC(=O)C1=C(C)NC(C)=C(C(=O)OCC)C1c1ccc(Cl)cc1Cl`, for which the IC90 is greater than 8.29 µM. The IC50 (PBLUC_HILL_SLOPE 1.65, PBLUC_R_SQUARED 0.211, read-out: LUCIFERASE INFECTION ASSAY - IC50) was greater than 8.29 µM.
With `CN1CCN(c2ccc(-c3cn4c(-c5ccc6ncccc6c5)cnc4cn3)cc2)CC1`, the 90% effect concentration (IC90) turned out to be 7.74 µM. In addition, the IC50 (HEPG2TOX_HILL_SLOPE 17, HEPG2TOX_R_SQUARED 0.823, PBLUC_HILL_SLOPE 14.3, PBLUC_R_SQUARED 0.731, read-out: LUCIFERASE INFECTION ASSAY - IC50) was determined as 6.63 µM.
Take `CCCn1c(O)nnc1SCC(=O)NC(C)C12CC3CC(CC(C3)C1)C2` (centres undefined): the IC90 is greater than 10 µM. Further, the 50% inhibitory concentration (IC50) under setting [1] is greater than 10 µM.
Regarding `Cc1ccc(NC(=S)NC2CCCCCCCCCCC2)cc1Cl`, the IC90 stood at 8.43 µM. Besides, the IC50 (HEPG2TOX_HILL_SLOPE 11.3, HEPG2TOX_R_SQUARED 0.761, PBLUC_HILL_SLOPE 19.1, PBLUC_R_SQUARED 0.333, read-out: LUCIFERASE INFECTION ASSAY - IC50) came to 7.51 µM.
On to `CN1/C(=C\Sc2ccccc2[N+](=O)[O-])C(C)(C)c2ccccc21`, for which the IC90 is greater than 10 µM. The IC50 (HEPG2TOX_HILL_SLOPE 1.18, HEPG2TOX_R_SQUARED 0.48, PBLUC_HILL_SLOPE 2.15, PBLUC_R_SQUARED 0.378, read-out: LUCIFERASE INFECTION ASSAY - IC50) was found to be 8.07 µM.
`O=C(CSc1nn(Cc2ccccc2)/c(=N\Cc2ccccc2)s1)NC(=O)NC1CCCCC1`: the IC90 is greater than 10 µM. Besides, the IC50 (FFLUC_HILL_SLOPE 7.96, FFLUC_R_SQUARED 0.22, read-out: LUCIFERASE INFECTION ASSAY - IC50) was greater than 10 µM.
On to `CN(C1=C(NC(=O)c2ccccc2)C(=O)c2ccccc2C1=O)C1CCS(=O)(=O)C1` (centres undefined), for which the 90% effect concentration (IC90) was greater than 10 µM. Further, for the setting “PBLUC_HILL_SLOPE 12.4, PBLUC_R_SQUARED 0.0349, read-out: LUCIFERASE INFECTION ASSAY - IC50”, the IC50 stood at 9.32 µM.
`CC(C)c1cccc(Nc2cc3c(cn2)nc(Nc2ccccc2)n3C)c1`: the IC90 is greater than 10 µM. For the same compound, under “PBLUC_HILL_SLOPE 1.87, PBLUC_R_SQUARED 0.0991, read-out: LUCIFERASE INFECTION ASSAY - IC50”, the IC50 is greater than 10 µM.
As for `Cc1nc(COc2ccc(Cl)cc2)sc1C(=O)OC(C)C(=O)N1CCCC1` (centres undefined), the IC90 was greater than 10 µM. Also, for the setting “PBLUC_HILL_SLOPE 2.47, PBLUC_R_SQUARED 0.699, read-out: LUCIFERASE INFECTION ASSAY - IC50”, the IC50 came out at 4.52 µM.
Regarding `C=CCn1c(-c2c(C)oc3ccccc23)cs/c1=N\S(=O)(=O)c1cccs1`, the IC90 was greater than 10 µM. In addition, the IC50 under setting [1] is greater than 10 µM.
For `CC(C)(C)NC(=S)N/N=C/c1cc(I)cc(I)c1O`, the IC90 came to 4.23 µM. In addition, for the setting “HEPG2TOX_HILL_SLOPE 8.65, HEPG2TOX_R_SQUARED 0.588, PBLUC_HILL_SLOPE 9.82, PBLUC_R_SQUARED 0.5, read-out: LUCIFERASE INFECTION ASSAY - IC50”, the IC50 came out at 3.38 µM.
Consider `Cc1ccc(-c2nnc(SCC(=O)Nc3ccc(S(=O)(=O)N4CCCC4)cc3)[nH]2)cc1`, for which the IC90 was greater than 10 µM. In addition, the IC50 under setting [1] is greater than 10 µM.
`C/C=C(/C(=C/C)c1ccc(O)cc1)c1ccc(O)cc1` [DIENESTROL]: the IC90 is greater than 12.4 µM. Also, the IC50 (FFLUC_HILL_SLOPE 1.35, FFLUC_R_SQUARED 0.489, HEPG2TOX_HILL_SLOPE 1.17, HEPG2TOX_R_SQUARED 0.908, PBLUC_HILL_SLOPE 0.733, PBLUC_R_SQUARED 0.69, read-out: LUCIFERASE INFECTION ASSAY - IC50) stood at 1.24 µM.
For `COc1ccccc1-c1cnn2ccc(Nc3ccccc3)nc12`, the concentration for an effect of 90% (IC90) worked out at 2.14 µM. Also, the IC50 (HEPG2TOX_HILL_SLOPE 8.7, HEPG2TOX_R_SQUARED 0.948, PBLUC_HILL_SLOPE 3.38, PBLUC_R_SQUARED 0.62, read-out: LUCIFERASE INFECTION ASSAY - IC50) was determined as 1.12 µM.
Regarding `O=C(NCCc1ccccn1)c1ccc(Cl)c(S(=O)(=O)N(Cc2ccccc2)c2cccc(C(F)(F)F)c2)c1`, the concentration for an effect of 90% (IC90) was determined as 3.59 µM. The half-inhibitory concentration (IC50) (PBLUC_HILL_SLOPE 3, PBLUC_R_SQUARED 0.619, read-out: LUCIFERASE INFECTION ASSAY - IC50) was 1.73 µM.
For the compound `CNC(=O)CN(C)Cc1c(O)c(C(=O)NCc2ccccc2)cc2ccccc12`, the IC90 was greater than 10 µM. The IC50 (PBLUC_HILL_SLOPE 3.62, PBLUC_R_SQUARED 0.233, read-out: LUCIFERASE INFECTION ASSAY - IC50) was found to be 8.75 µM.
In the case of `CC(C)N(Cc1ccccc1)C(=S)NC(=O)C1(C)CC1(Cl)Cl` (centres undefined), the IC90 was greater than 10 µM. Also, the IC50 under setting [1] was greater than 10 µM.
As to `O=C(Nc1cccc(Cl)c1)c1cccc(NC(=O)c2cccs2)c1`, the IC90 was 9.24 µM. Further, where the note is “HEPG2TOX_HILL_SLOPE 11.6, HEPG2TOX_R_SQUARED 0.635, PBLUC_HILL_SLOPE 2.89, PBLUC_R_SQUARED 0.488, read-out: LUCIFERASE INFECTION ASSAY - IC50”, the IC50 was 4.32 µM.
As to `CS(=O)(=O)Nc1ccc(C(=N)NOC(=O)Nc2ccc(C(F)(F)F)cc2)cc1`, the IC90 is greater than 7.93 µM. In addition, under setting [1], the IC50 was greater than 7.93 µM.
For the compound `N#Cc1cc(NC(=O)c2ccc(F)cc2)ccc1Sc1cccc(C(F)(F)F)c1`, the IC90 is greater than 7.93 µM. The IC50 under setting [1] was 3.07 µM.
Take `Cc1ccc(-c2nnc3c(C(F)(F)F)nc4ccccc4n23)cc1`: the IC90 was greater than 10.1 µM. In addition, the IC50 (HEPG2TOX_HILL_SLOPE 6.88, HEPG2TOX_R_SQUARED 0.907, PBLUC_HILL_SLOPE 7.21, PBLUC_R_SQUARED 0.0351, read-out: LUCIFERASE INFECTION ASSAY - IC50) turned out to be 8.59 µM.
For `COC(=O)c1cccc(S(=O)(=O)Oc2cc3ccccc3cc2C(=O)Nc2cc(C)ccc2OC)c1`, the IC90 is greater than 10 µM. In addition, the IC50 (FFLUC_HILL_SLOPE 26.2, FFLUC_R_SQUARED 0.533, PBLUC_HILL_SLOPE 4.23, PBLUC_R_SQUARED 0.622, read-out: LUCIFERASE INFECTION ASSAY - IC50) was 8.38 µM.
Consider `COc1ccc(C2CC(c3ccccc3)=NN2C(=O)COc2c(Cl)cc(Cl)c3ccc(C)nc23)cc1` (centres undefined), for which the IC90 is greater than 10 µM. Moreover, the IC50 under setting [1] is greater than 10 µM.
As to `N#Cc1ccccc1NC(=O)CSc1nc2scc(-c3ccccc3Cl)c2c(=O)n1CCc1ccccc1`, the 90% effect concentration (IC90) came out at 9.03 µM. The IC50 (FFLUC_HILL_SLOPE 9.25, FFLUC_R_SQUARED 0.857, PBLUC_HILL_SLOPE 5.48, PBLUC_R_SQUARED 0.817, read-out: LUCIFERASE INFECTION ASSAY - IC50) is 6.05 µM.
Take `COc1cccc(-c2nc3ccc(NC(=O)CC(C)(C)C)cn3n2)c1`: the concentration for an effect of 90% (IC90) was greater than 10 µM. For the same compound, the IC50 (PBLUC_HILL_SLOPE 0.895, PBLUC_R_SQUARED 0.614, read-out: LUCIFERASE INFECTION ASSAY - IC50) came to 0.974 µM.
With `CNC(=O)C(Sc1nnc(Nc2ccc(C(C)C)cc2)s1)C(C)=O` (centres undefined), the IC90 is greater than 10 µM. The IC50 under setting [1] is greater than 10 µM.
Regarding `Cc1[nH]c2ccccc2c1Sc1ccc(Cl)cc1`, the concentration for an effect of 90% (IC90) is greater than 12.1 µM. Under setting [1], the IC50 was greater than 12.1 µM.
Consider `COc1cccc(C(=O)Nc2nc3ccc(C)cn3c2C(=O)NCC(C)C)c1`, for which the IC90 was 4.69 µM. For the same compound, the half-inhibitory concentration (IC50) under setting [1] came to 2.62 µM.
